The source of these data is the OPERA property sets (Mansouri et al. 2018).

Where a SMILES comes first, the peptide text is derived from it.

Regarding `CCCCCCCNC1=NS(=O)N=C1NCCSCc1ccc(CN(C)C)o1` (stereo not given), the logP (in general, the decadic logarithm of the partition coefficient of the neutral form, usually between octanol and water) is 3.91.
With `COC(=O)C(C)NP(=O)(OCC1C=CC(n2cc(C)c(=O)[nH]c2=O)O1)Oc1ccc(OC)cc1` (stereo not given), the log partition coefficient (logP) came out at 1.09.
Regarding `CCC(C)C(NC(=O)C(Cc1ccccc1)NC(=O)C(CCSC)NC(=O)C(N)C(C)C)C(=O)O` (stereo not given) (H-VMFI-OH; configuration not given here), the logP is -0.63.
In the case of `CC(C)CC(NC(=O)C1CCCN1)C(=O)O` (stereo not drawn) (H-Pro-Leu-OH; configuration not given here), the logP was -2.41.
`COc1cc(OC)c(Cl)cc1N` had a logP of 1.45.
For the compound `O=c1cc(-c2ccccc2Cl)oc2ccccc12`, the logP turned out to be 3.61.
Turning to `c1ccc(Nc2ncnc3nc[nH]c23)cc1`, the logP was 2.12.
Compound `CCCC(=NOCC)C1=C(O)CC2(CCCCC2)OC1=O` returned a logP of 3.62.
`O=[N+]([O-])c1cn(Cc2ccccc2)cn1` returned a logP of 1.36.
In turn, `CCCN(CCC)C1CCc2c(OC)cccc2C1C` (stereo not given) had a logP of 4.76.
`COC(=O)C(C)=CC1C(C(=O)OCc2cccc(C#N)c2)C1(C)C` (stereo not given): the logP was 3.83.
`O=c1c2c(nc3n1CCC3)CCC2` displayed a logP of 0.22.
`CN(C)CCCCc1ccccc1` registered a logP of 3.15.
To `O=Cc1ccc(Cl)cc1O` belongs 2.49; to `Cc1oc2nc3oc(=O)cc(C)c3cc2c1C`, 2.25; to `O=C(Cc1ccccc1)c1c(O)c2ccc(Cl)cc2[nH]c1=O`, 3.66.
For `NC(=O)c1cccc2nc(N)nc(N)c12`, the logP was -0.33.
Turning to `CC(C)(C)NC(=O)[C@@H]1CN(Cc2cccnc2)CCN1C[C@@H](O)C[C@@H](Cc1ccccc1)C(=O)N[C@H]1c2ccccc2C[C@H]1O`, the logP is 3.49.
As for `O=C(C=Cc1ccc([N+](=O)[O-])o1)NN=Cc1ccc([N+](=O)[O-])o1`, the logP amounted to 2.79.
`Cc1cccc2c1C(=O)N(CCO[N+](=O)[O-])CO2`: the logP is 2.54.
Regarding `c1nc2nc[nH]c(N3CCCCCC3)c-2n1`, the logP was found to be 2.53.
`CC(C)NCC(O)COc1ccc(-c2nc(-c3cccs3)c[nH]2)cc1` (stereo not given) yielded a logP of 3.2.
To `COc1ccc(C2=NC(C)(C(=O)O)CS2)c(O)c1OC` (stereo not given) belongs 1.4; to `COC(=O)CCSc1ccc2nc(-c3ccc(N(C)C)cc3)cn2c1`, 3.9; to `ClCC1(CCl)C2CC(Cl)(Cl)C1(CCl)C(Cl)C2Cl` (stereo not given), 5.23.
Take `CCCc1ccc(CNc2[nH]cnc3ncnc2-3)cc1`: the logP was 3.72.
On to `Cc1cccc(C)c1CCn1ccnc1`, for which the logP was found to be 2.73.
The value for `COc1ccc(C2Cc3c(cccc3[N+](=O)[O-])N(CCN(C)C)C(=O)C2OC(C)=O)cc1` (stereo not given) was 3.7; that for `CC(C)CC(NC(=O)C(CC(C)C)NC(=O)C(CC(C)C)NC(=O)C1CCCN1)C(=O)O` (stereo not given) (H-PLLL-OH; configuration not given here) was -1.06; that for `CC(C)(Cc1c[nH]c2ccccc12)NCC(O)CON=C(C1CC1)C1CC1` (stereo not given) was 3.29.
`CNS(=O)(=O)c1nnc(NC(C)=O)s1` came in with a logP of 0.49.
With `CC(C)C1(C)N=C(c2ncc(Br)cc2C(=O)O)NC1=O` (stereo not given), the logP was determined as 1.19.
As for `S=C=NCCCCc1ccccc1`, the logP was determined as 4.
As for `COc1nc(C)nc(Cl)c1NC1=NCCN1`, the logP was determined as 0.9.
In the case of `COc1cc2c(Nc3cc(CC(=O)Nc4cccc(F)c4F)[nH]n3)ncnc2cc1OCCCN1CCCC1CO` (stereo not given), the logP came to 3.6.
`Cc1c(C)c2cc3ccoc3cc2oc1=O` had a logP of 2.77.
Regarding `c1ccc(N2CCN(CCn3nnc4ccccc43)CC2)cc1`, the logP is 2.74.
To `CCCCC(O)C(CCCCOc1ccc(F)cc1)n1cncn1` (stereo not given) belongs 3.38; to `COC(=O)Nc1c(C(C)C)cccc1C(C)C`, 2.2; to `Cc1cn(C2C=CC(COP3(=O)OCc4ccccc4O3)O2)c(=O)[nH]c1=O` (stereo not given), 0.28.
The compound `COc1ccc(CCNCC(O)COc2ccc(Cc3nc(C)c[nH]3)cc2)cc1OC` (stereo not given) had a logP of 2.5.
`CSCCC(NC(=O)C(Cc1ccccc1)NC(=O)CNC(=O)C(C)NC(=O)C(N)Cc1ccc(O)cc1)C(=O)O` (stereo not given): the logP was -0.59.
The value for `CCOC(=O)CCCn1ccnc1[N+](=O)[O-]` was 0.69; that for `Cc1ccccc1Nc1ccncc1S(=O)(=O)NC(=O)NC(C)C` was 3.91.
For `CCCC(=O)c1ccncc1`, the logP is 1.4.
Compound `c1ccc(Nc2nnc(Cn3ccc4ccccc43)s2)cc1` returned a logP of 3.47.
For the compound `CCCC(=NOCC)C1=C(O)CC2(CCCCC2C)OC1=O` (stereo not given), the logP worked out at 3.9.
Turning to `O=c1ccc2ccc3occc3c2s1`, the logP was 2.58.
The value for `CCNC(=S)NS(=O)(=O)c1cnccc1NC1CCCCC1` was 3.1; that for `COc1c([N+](=O)[O-])cc(C(=O)O)cc1[N+](=O)[O-]` was 1.73; that for `Cc1cc2c(s1)Nc1ccccc1N=C2N1CCN(C)CC1` was 3.
The value for `O=C1c2ccccc2-c2nnccc21` was 1.22.
The value for `CCCCOCCCNc1ncnc2c1ncn2C1OC(CO)C(O)C1O` (stereo not given) was 1.3.
`CC(C)NC(=NC#N)NS(=O)(=O)c1cnccc1Nc1cccc(C(F)(F)F)c1` returned a logP of 2.54.
The value for `C=CCNC(=O)N(CCCCC(NC(C)=O)C(=O)NCc1ccccc1)Cc1ccccc1` (stereo not given) was 1.98.
`COCCCNC(=O)Cn1cnc([N+](=O)[O-])n1`: the logP was -0.49.
Regarding `O=c1ssc(-c2ccccc2)c1-c1ccccc1`, the logP was 4.07.
To `Cc1coc2cc3oc(=O)cc(C)c3cc12` belongs 2.76.
In turn, `NC(=O)Cc1c[nH]c2ccccc12` gave a logP of 0.75.
The compound `Cc1cccc(C)c1-c1cnc[nH]1` gave a logP of 2.38.
Regarding `CC(C)CC(N)C(=O)NC(Cc1ccc(O)cc1)C(=O)O` (stereo not given), the logP was -1.94.
Turning to `CCCNc1ccncc1S(=O)(=O)NC(=NC#N)NC(C)C`, the logP was 0.35.
Take `c1ccc(Cn2cccn2)cc1`: the logP stood at 1.78.
`CCCNC(C)C(=O)Nc1c(C)csc1C(=O)OC` (stereo not given) yielded a logP of 1.89.
`COc1ccc(C2Cc3cc(C(F)(F)F)ccc3N(CCN(C)C)C(=O)C2NC(C)=O)cc1` (stereo not given) returned a logP of 3.6.
`OC(CNCCCc1ccccc1)CON=C(C1CC1)C1CC1` (stereo not given) showed a lipophilicity (logP) of 2.56.
For the compound `N#Cc1cccc(Cn2cccn2)c1`, the logP came out at 1.74.
For `Cc1cc(=O)[nH]c2c1cc(C)c1occ(C)c12`, the logP turned out to be 3.13.
Consider `CC(C)NCC(O)COc1ccc(-c2ncc[nH]2)cc1` (stereo not given), for which the logP was found to be 1.4.
Compound `O=C(O)c1ccccc1C(c1ccc(O)cc1)c1ccc(O)cc1` returned a logP of 2.61.
`NC1=NCC(COc2ccccc2[N+](=O)[O-])O1` (stereo not given) gave a logP of 0.8.
`Cc1cc(C(=O)O)ccc1[N+](=O)[O-]` showed a logP of 2.42.
The value for `OC(CNC1CCCC1)CON=C(C1CC1)C1CC1` (stereo not given) was 2.46.
The value for `Cc1nc2ccccc2c(=O)n1CC(=O)NCc1ccco1` was 1.24.
Consider `OC(CNCc1ccccc1)CON=C(C1CC1)C1CC1` (stereo not given), for which the logP worked out at 2.08.
`CC(=NNC(=O)c1ccc(O)cc1)c1cnccn1` showed a logP of 1.9.
To `CCCc1nc(N)nc(N2CCOCC2)n1` belongs 0.7; to `CC(=O)OCOC(=O)C(C)c1cccc(C(=O)c2ccccc2)c1` (stereo not given), 3.4; to `Nc1nnnn1-c1ccc(Cl)cc1Cl`, 1.62.
The value for `CCCCCOc1ccc(NC(=O)OCCN2CCCCC2)cc1` was 5.31.
In turn, `CCCCCCCNCc1ccc(C)cc1` came in with a logP of 5.12.
The compound `CCCCCN(CCCCC)CC(O)c1ccccc1` (stereo not given) came in with a logP of 2.86.
With `OCC1OC(Oc2ccc3cc(Br)ccc3c2)C(O)C(O)C1O` (stereo not given), the lipophilicity (logP) amounted to 1.97.
The value for `FC(F)(F)c1cccc(CNc2[nH]cnc3ncnc2-3)c1` was 3.08.
In the case of `COCc1c(O)c(=O)cc(C)n1C`, the logP is -0.42.
In turn, `Cc1ccc(C(=O)O)cc1[N+](=O)[O-]` gave a logP of 2.35.
Take `Nc1ccn(C2CC(CO)C(O)C2O)c(=O)n1` (stereo not given): the log partition coefficient (logP) was -2.41.
Regarding `CC(C)C(NC(=O)C(Cc1ccccc1)NC(=O)CNC(=O)CN)C(=O)NC(Cc1ccccc1)C(=O)O` (stereo not given) (H-GGFVF-OH; configuration not given here), the logP was -1.4.
To `CC(=O)OC1CCCC2(C)CCC(C(C)(C)O)CC12` (stereo not given) belongs 3.42; to `Cc1oc2c(C)cc3ccc(=O)oc3c2c1C`, 3.34.
Turning to `CN1CCc2cccc(Cl)c2CC1`, the logP worked out at 2.92.
To `Brc1ccc(Br)c(N=C2NCCN2)c1` belongs 2.71; to `COc1cccc2c1CCC(N)C2C` (stereo not given), 2.26.
To `CC1(C(=O)O)CSC(c2cc(O)ccc2O)=N1` (stereo not given) belongs 1.3; to `CCOC(=O)OC(C)C1=CCSC2C(NC(=O)C(=NOC)c3csc(N)n3)C(=O)N12` (stereo not given), 0.96.
Regarding `CC1CC2C3CCC4=CC(=O)C=CC4(C)C3(F)C(O)CC2(C)C1(O)C(=O)COC(=O)C1CCCCC1` (stereo not given), the logP came out at 4.46.
`CCOC(=O)c1ccc(N=NN(C)C(=O)OCOC(=O)C(C)NC(C)=O)cc1` (stereo not given) yielded a logP of 2.73.
The value for `COC(=O)C(C)NP(=O)(OCC1C=CC(n2cc(C)c(=O)[nH]c2=O)O1)Oc1cccc(Cl)c1` (stereo not given) was 1.42; that for `CCCC(=O)OCC1OC(n2cc(I)c(=O)[nH]c2=O)CC1O` (stereo not given) was 0.88; that for `O=C1N=C(N2CCCC2)CN1c1ccc(Cl)cc1` was 2.
For the compound `Cc1ccc(CNc2ncnc3nc[nH]c23)cc1`, the logP turned out to be 2.66.
For `CC(NC(=O)C(N)Cc1c[nH]c2ccccc12)C(=O)NC(C(N)=O)C(C)C` (stereo not drawn) (H-Trp-Ala-Val-NH2; configuration not given here), the logP is 0.4.
The value for `COc1cccc(C2CCCCC2=O)c1` (stereo not given) was 2.42; that for `Clc1cccc(N2CCN(CCCOn3nnc4ccccc43)CC2)c1` was 4.2; that for `CSCCC(N)C(=O)NC(Cc1c[nH]c2ccccc12)C(=O)O` (stereo not given) was -1.5.
In the case of `CC1CCC(NC(=O)N2C(=O)N(C)CC2O)CC1` (stereo not given), the logP turned out to be 2.41.
With `Fc1ccc(CNc2[nH]cnc3ncnc2-3)cc1`, the logP came out at 2.34.
For the compound `O=C(O)Cc1ccccc1Nc1cc(Cl)cc(Cl)c1`, the logP was determined as 5.07.
The value for `CCCNC1CCc2c(O)cccc2C1C` (stereo not given) was 2.88.
In the case of `Oc1cccc(CNc2ncnc3nc[nH]c23)c1`, the logP stood at 1.56.
